Consider 3 molecules from patent publication US20110319485A1, “Composition Having Anti-Helicobacter Pylori Activity And Its Application To Inhibit Helicobacter Pylori” (Yushen Biotechnology & Medical Co, Ltd., priority 2010, published 2011).

One may read the MIC as the lowest concentration that inhibits growth of the organism. In general, MBC refers to the lowest tested concentration that kills the bacteria rather than only halting them.

Assay [1] deals with H. pylori BCRC 17027. Kind of assay: Inhibitory-zone measurement (agar well diffusion assay). The assay is classed as cell-based, Helicobacter pylori. Conditions: for zone of inhibition at 40000 µg/mL: Helicobacter pylori, BCRC17027, 72 h, read-out: The diameter of inhibitory-zone. Here is the method: H. pylori BCRC 17027 was obtained from the Bioresources Collection and Research Center (BCRC), Hsinchu, Taiwan, ROC. […] The cell suspension was then diluted with TSB to provide a cell concentration of 3×10^8 CFUs/mL for antimicrobial testing. An agar well diffusion assay was used to determine if H. pylori was susceptible to the anti-bacterial activity of the various fractions and isolates (al Somal et al., 1994, J R Soc Med, 87: 9-12). A volume of 100 μL for each of the bacterial suspensions tested (3×10^8 CFUs/mL) was spread onto the TSA agar plate containing 5% (v/v) defibrinated sheep blood. Wells sized 7 mm in diameter were punched on the plates with 5 μL of the Fr1-Fr5 and ovatodiolide (40 mg/mL; DMSO as solvent) to be individually incorporated into the wells. DMSO was used as negative control and metronidazole (MTZ, 40 mg/mL) was used as positive control.
(In agar diffusion tests the substance spreads into inoculated agar from a disc or well.)

Assay [2] deals with Helicobacter pylori BCRC 17027 strain. Kind of assay: Minimum inhibitory concentration (MIC), agar-dilution method. The assay is classed as cell-based. As to conditions: BCRC17027, agar dilution assay, TSA with 5% sheep blood, 72 hours, 37° C. The method, then:
H. pylori BCRC 17027 was obtained from the Bioresources Collection and Research Center (BCRC), Hsinchu, Taiwan, ROC. The H. pylori strain was cultured in 5 mL tryptic soy broth (TSB, each liter containing: 17 g peptone from casein, 3 g peptone from soymeal, 2.5 g dextrose, 5 g sodium chloride, 2.5 g dipotassium phosphate, pH 7.3) with a tryptic soy agar (TSA, each liter containing: 15 g peptone from casein, 5 g peptone from soymeal, 5 g sodium chloride, 15 g agar, pH 7.3) and slant containing 5% (v/v) of defibrinated sheep blood formed at the bottom of the test tube.
The broth was incubated in a microaerophilic jar system (BBL), featuring a gas composition of 5% O2, 10% CO2 and 85% N2 (BD GasPak™ EZ Gas Generating systems), at 37° C. for 72 hours. The cell suspension was then diluted with TSB to provide a cell concentration of 3×10^8 CFUs/mL for antimicrobial testing.
The MIC of the purified substance was determined by the agar-dilution method (Shungu et al., 1987, Antimicrob Agents Chemother, 31: 949-950). A volume of 40 μL of cell suspension (initial bacterial count 3×10^8 CFUs/mL) was spread onto the TSA agar plates containing 5% (v/v) defibrinated sheep blood. […] DMSO was used as control. Metronidazole (MTZ) and clarithromycin (CLA) were co-assayed as the positive reference at concentrations of 8.0-128.0 μg/mL and 0.008-0.128 μg/mL, respectively. Following incubation in a microaerophilic jar system, featuring a gas composition of 5% O2, 10% CO2 and 85% N2, at 37° C. for 72 hours, the colonies that had formed on the plates were enumerated. The MIC was defined as the minimum concentration of the test sample (antibacterial agent) in a given culture medium on which bacteria are not able to form colonies.
For orientation: In agar dilution, organisms are placed on agar that contains the substance at set levels.

Assay [3] has the same test system. Kind of assay: Minimum bactericidal concentration (MBC), broth dilution. Type of assay: cell-based. As to conditions: broth dilution assay, 1 hour exposure in Brucella broth, then plated 72 hours, means of three experiments. On the technique in general: Dilution methods test growth across graded concentrations, often in twofold steps.
Assay [4] has as its system Helicobacter pylori. As to conditions: A Vasquez et al., 1996; cited from earlier work.
[5] abbreviates: 5 μL of 40 mg/mL in DMSO per 7 mm well (200 μg/disk), 72 hours, 37° C., microaerophilic, mean±S.D.
Setting [6] is: Helicobacter pylori, BCRC17027, read-out: MBC.

In brackets after ≈: the same amount, converted by molar mass. Read-outs that look alike come from different tables or passages of the source. Marks after values point to notes of the source that are not given here.

With `Cc1ncc([N+](=O)[O-])n1CCO` [Metronidazole], in assay [1] (setting [5]), the zone of inhibition at 40000 µg/mL was found to be 21.8 ± 3.1 mm. For the same molecule, the “Anti-Helicobacter pylori activity in inhibitory-zone assay (in words)” value in assay [1] (agar well diffusion) was “inhibition halos smaller than ovatodiolide”. This molecule displayed an MIC in assay [2] of 64 µg/mL (≈ 374 µM). Also, in assay [3] (setting [6]), the MBC was 2560 µg/mL (≈ 15000 µM). The “minimum inhibitory concentration of known antibiotics” value in assay [4] is 64 µg/mL.

`CC[C@H]1OC(=O)[C@H](C)[C@@H](O[C@H]2C[C@@](C)(OC)[C@@H](O)[C@H](C)O2)[C@H](C)[C@@H](O[C@@H]2O[C@H](C)C[C@H](N(C)C)[C@H]2O)[C@](C)(OC)C[C@@H](C)C(=O)[C@H](C)[C@@H](O)[C@]1(C)O` [Clarithromycin]: the MIC in assay [2] amounted to 0.032 µg/mL (≈ 0.0428 µM). The MBC in assay [3] (setting [6]) turned out to be 1 µg/mL (≈ 1.34 µM). The “minimum inhibitory concentration of known antibiotics” value in assay [4] was 0.25 µg/mL.

Consider `C=C1C(=O)OC2/C=C(\C)C[C@H]3C=C(CC/C=C(\C)CC[C@H]12)C(=O)O3` (stereo partly shown) [Ovatodiolide, ovatodiolide], for which, in assay [1] (setting [5]), the “The diameter of inhibitory-zone” value came to 34.4 ± 2.0 mm. The zone of inhibition at 40000 µg/mL in assay [1] (setting [5]) is 34 mm. Also, in assay [2], the MIC was determined as 16 µg/mL (≈ 48.7 µM). For the same molecule, the MBC was 80 µg/mL (≈ 244 µM) in assay [3] (setting [6]) and 80^b μg/mL in assay [3].
